biological target: T1, human RORgT (Homo sapiens, UniProt P51449); assay: RORgT Gal4 Luciferase Reporter Gene Assay; format: cell-based; conditions: engineered Jurkat cells overexpressing RORgT (LBD or full length) fused with Gal4 Luc reporter; 18 hours at 37° C.; luminescence
T1 construct: expressed in transfected cells
T1 sequence (P51449 267-516): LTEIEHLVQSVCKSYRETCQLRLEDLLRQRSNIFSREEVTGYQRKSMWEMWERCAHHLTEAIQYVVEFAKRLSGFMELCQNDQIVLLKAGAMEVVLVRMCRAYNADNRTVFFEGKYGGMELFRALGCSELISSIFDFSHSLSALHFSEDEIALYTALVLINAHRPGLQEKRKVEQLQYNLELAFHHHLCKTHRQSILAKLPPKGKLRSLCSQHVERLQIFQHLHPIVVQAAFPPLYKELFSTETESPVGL
Outline: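 Jurkat cells expressing Gal4 Luc with either RORgT LBD (aa267-516) or full-length human RORgT, 10,000 cells/well, treated with compound (40 µM to 0.67 nM final, 3-fold dilutions) for 18 h at 37° C. Steady-Glo luminescence read; inhibition of constitutive activity as % signal-window reduction relative to a control compound.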

Q: With `CN1CCC(C(=O)N2CC[C@@]3(S(=O)(=O)c4ccc(F)cc4)c4ccc(OCc5c(F)cccc5C(F)(F)F)cc4CC[C@@H]23)CC1` [Example 184, 4-[(3aR,9bR)-7-{[2-fluoro-6-(trifluoromethyl)phenyl]methoxy}-9b-(4-fluorobenzenesulfonyl)-1H,2H,3H,3aH,4H,5H,9bH-benzo[e]indole-3-carbonyl]-1-methylpiperidine] as the compound, how does the EC50 read?
A: 0.068 µM

Q: `NS(=O)(=O)CC(=O)N1CC[C@@]2(S(=O)(=O)c3ccc(F)cc3)c3ccc(OCc4c(F)cccc4C(F)(F)F)cc3CC[C@@H]12` [Example 185, 2-[(3aR,9bR)-7-{[2-fluoro-6-(trifluoromethyl)phenyl]methoxy}-9b-(4-fluorobenzenesulfonyl)-1H,2H,3H,3aH,4H,5H,9bH-benzo[e]indol-3-yl]-2-oxoethane-1-sulfonamide] was tested. Which EC50 did it give?
A: 0.09 µM

Q: How did the EC50 turn out when `O=C(C1CCS(=O)(=O)C1)N1CC[C@@]2(S(=O)(=O)c3ccc(F)cc3)c3ccc(OCc4c(F)cccc4C(F)(F)F)cc3CC[C@@H]12` (stereo partly drawn) [Example 187, 3-[(3aR,9bR)-7-{[2-fluoro-6-(trifluoromethyl)phenyl]methoxy}-9b-(4-fluorobenzenesulfonyl)-1H,2H,3H,3aH,4H,5H,9bH-benzo[e]indole-3-carbonyl]-1λ^6-thiolane-1,1-dione] was run?
A: 0.01 µM

Q: How did the EC50 turn out when `CS(=O)(=O)CC(=O)N1CC[C@@]2(S(=O)(=O)c3ccc(F)cc3)c3ccc(OCc4c(F)cccc4C(F)(F)F)cc3CC[C@@H]12` [Example 188, 1-[(3aR,9bR)-7-{[2-fluoro-6-(trifluoromethyl)phenyl]methoxy}-9b-(4-fluorobenzenesulfonyl)-1H,2H,3H,3aH,4H,5H,9bH-benzo[e]indol-3-yl]-2-methanesulfonylethan-1-one] was run?
A: 0.075 µM

Q: Which EC50 does the source give for `CC(=O)N1CCC(C(=O)N2CC[C@@]3(S(=O)(=O)c4ccc(F)cc4)c4ccc(OCc5c(Cl)cccc5Cl)cc4CC[C@@H]23)CC1` [Example 189, 1-{4-[(3aR,9bR)-7-[(2,6-dichlorophenyl)methoxy] -9b-(4-fluorobenzenesulfonyl)-1H,2H,3H,3aH,4H,5H,9bH-benzo[e]indole-3-carbonyl]piperidin-1-yl}ethan-1-one] here?
A: 0.041 µM

Q: How did the EC50 turn out when `CS(=O)(=O)N1CCC(C(=O)N2CC[C@@]3(S(=O)(=O)c4ccc(F)cc4)c4ccc(OCc5c(Cl)cccc5Cl)cc4CC[C@@H]23)CC1` [Example 190, 4-[(3aR,9bR)-7-[(2,6-dichlorophenyl)methoxy]-9b-(4-fluorobenzenesulfonyl)-1H,2H,3H,3aH,4H,5H,9bH-benzo[e]indole-3-carbonyl]-1-methanesulfonylpiperidine] was run?
A: 0.0087 µM

Q: With `CS(=O)(=O)CC(=O)N1CC[C@@]2(S(=O)(=O)c3ccc(F)cc3)c3ccc(OCc4c(Cl)cccc4Cl)cc3CC[C@@H]12` [Example 191, 1-[(3 aR,9bR)-7-[(2,6-dichlorophenyl)methoxy] -9b-(4-fluorobenzenesulfonyl)-1H,2H,3H,3aH,4H,5H,9bH-benzo[e]indol-3-yl]-2-methanesulfonylethan-1-one] as the compound, how does the EC50 read?
A: 0.134 µM

Q: `O=C(O)[C@H]1CC[C@H](C(=O)N2CC[C@@]3(S(=O)(=O)c4ccc(F)cc4)c4ccc(OCc5ccc(F)cc5Cl)cc4CC[C@@H]23)CC1` [Example 193, (1r,4r)-4-[(3aR,9bR)-7-[(2-chloro-4-fluorophenyl)methoxy]-9b-(4-fluorobenzenesulfonyl)-1H,2H,3H,3aH,4H,5H,9bH-benzo[e]indole-3-carbonyl]cyclohexane-1-carboxylic acid] was tested. Which EC50 did it give?
A: 0.046 µM

Q: Which EC50 does the source give for `NS(=O)(=O)CC(=O)N1CC[C@@]2(S(=O)(=O)c3ccc(F)cc3)c3ccc(OCc4cc(F)ccc4Cl)cc3CC[C@@H]12` [Example 194, 2-[(3aR,9bR)-7-[(2-chloro-5-fluorophenyl)methoxy]-9b-(4-fluorobenzenesulfonyl)-1H,2H,3H,3aH,4H,5H,9bH-benzo[e]indol-3-yl]-2-oxoethane-1-sulfonamide] here?
A: 0.189 µM

Q: Which EC50 does the source give for `CS(=O)(=O)CC(=O)N1CC[C@@]2(S(=O)(=O)c3ccc(F)cc3)c3ccc(OCc4cc(F)ccc4Cl)cc3CC[C@@H]12` [Example 195, 1-[(3 aR,9bR)-7-[(2-chloro-5-fluorophenyl)methoxy]-9b-(4-fluorobenzenesulfonyl)-1H,2H,3H,3aH,4H,5H,9bH-benzo[e]indol-3-yl]-2-methanesulfonylethan-1-one] here?
A: 0.158 µM

Q: With `CC(=O)N1CCC(C(=O)N2CC[C@@]3(S(=O)(=O)c4ccc(F)cc4)c4ccc(OCc5cc(Cl)ccc5Cl)cc4CC[C@@H]23)CC1` [Example 196, 1-{4-[(3aR,9bR)-7-[(2,5-dichlorophenyl)methoxy] -9b-(4-fluorobenzenesulfonyl)-1H,2H,3H,3aH,4H,5H,9bH-benzo[e]indole-3-carbonyl]piperidin-1-yl}ethan-1-one] as the compound, how does the EC50 read?
A: 0.037 µM

Q: `O=C(CN1CCS(=O)(=O)CC1)N1CC[C@@]2(S(=O)(=O)c3ccc(F)cc3)c3ccc(OCc4cc(Cl)ccc4Cl)cc3CC[C@@H]12` [Example 197, 4-{2-[(3aR,9bR)-7-[(2,5-dichlorophenyl)methoxy] -9b-(4-fluorobenzenesulfonyl)-1H,2H,3H,3aH,4H,5H,9bH-benzo[e]indol-3-yl]-2-oxoethyl}-1λ^6-thiomorpholine-1,1-dione] was tested. Which EC50 did it give?
A: 0.049 µM

Q: Which EC50 does the source give for `NC(=O)N1CCC(C(=O)N2CC[C@@]3(S(=O)(=O)c4ccc(F)cc4)c4ccc(OCc5ccc(F)cc5Cl)cc4CC[C@@H]23)CC1` [Example 198, 4-[(3aR,9bR)-7-[(2-chloro-4-fluorophenyl)methoxy]-9b-(4-fluorobenzenesulfonyl)-1H,2H,3H,3aH,4H,5H,9bH-benzo[e]indole-3-carbonyl] piperidine-1-carboxamide] here?
A: 0.019 µM

Q: Which EC50 does the source give for `O=C(C1CCS(=O)(=O)C1)N1CC[C@@]2(S(=O)(=O)c3ccc(F)cc3)c3ccc(OCc4cc(Cl)ccc4Cl)cc3CC[C@@H]12` (stereo partly drawn) [Example 199, 3-[(3aR,9bR)-7-[(2,5-dichlorophenyl)methoxy]-9b-(4-fluorobenzenesulfonyl)-1H,2H,3H,3aH,4H,5H,9bH-benzo[e]indole-3-carbonyl]-1λ^6-thiolane-1,1-dione] here?
A: 0.0087 µM

Q: For `O=C(C1CCS(=O)(=O)CC1)N1CC[C@@]2(S(=O)(=O)c3ccc(F)cc3)c3ccc(OCc4cc(Cl)ccc4Cl)cc3CC[C@@H]12` [Example 200, 4-[(3aR,9bR)-7-[(2,5-dichlorophenyl)methoxy]-9b-(4-fluorobenzenesulfonyl)-1H,2H,3H,3aH,4H,5H,9bH-benzo[e]indole-3-carbonyl]-1λ^6-thiane-1,1-dione], which EC50 is on record?
A: 0.0075 µM

Q: With `O=C(C1CCS(=O)(=O)C1)N1CC[C@@]2(S(=O)(=O)c3ccc(F)cc3)c3ccc(OCc4ccc(F)cc4Cl)cc3CC[C@@H]12` (stereo partly drawn) [Example 201, 3-[(3aR,9bR)-7-[(2-chloro-4-fluorophenyl)methoxy]-9b-(4-fluorobenzenesulfonyl)-1H,2H,3H,3aH,4H,5H,9bH-benzo[e]indole-3-carbonyl]-1λ^6-thiolane-1,1-dione] as the compound, how does the EC50 read?
A: 0.04 µM

Q: `NC(=O)N1CCC(C(=O)N2CC[C@@]3(S(=O)(=O)c4ccc(F)cc4)c4ccc(OCc5cc(Cl)ccc5Cl)cc4CC[C@@H]23)CC1` [Example 202, 4-[(3aR,9bR)-7-[(2,5-dichlorophenyl)methoxy]-9b-(4-fluorobenzenesulfonyl)-1H,2H,3H,3aH,4H,5H,9bH-benzo[e]indole-3-carbony1]piperidine-1-carboxamide] was tested. Which EC50 did it give?
A: 0.015 µM

Q: With `COC(=O)[C@H]1CC[C@H](C(=O)N2CC[C@@]3(S(=O)(=O)c4ccc(F)cc4)c4ccc(OCc5cc(Cl)ccc5Cl)cc4CC[C@@H]23)CC1` [Example 203, methyl (1r,4r)-4-[(3aR,9bR)-7-[(2,5-dichlorophenyl)methoxy] -9b-(4-fluorobenzenesulfonyl)-1H,2H,3H,3aH,4H,5H,9bH-benzo[e]indole-3-carbonyl] cyclohexane-1-carboxylate] as the compound, how does the EC50 read?
A: 0.111 µM

Q: Which EC50 does the source give for `CN1CCC(C(=O)N2CC[C@@]3(S(=O)(=O)c4ccc(F)cc4)c4ccc(OCc5cc(Cl)ccc5Cl)cc4CC[C@@H]23)CC1` [Example 204, 4-[(3aR,9bR)-7-[(2,5-dichlorophenyl)methoxy]-9b-(4-fluorobenzenesulfonyl)-1H,2H,3H,3aH,4H,5H,9bH-benzo[e]indole-3-carbonyl]-1-methylpiperidine] here?
A: 0.076 µM

Q: Which EC50 does the source give for `O=C(O)[C@H]1CC[C@H](C(=O)N2CC[C@@]3(S(=O)(=O)c4ccc(F)cc4)c4ccc(OCc5cc(Cl)ccc5Cl)cc4CC[C@@H]23)CC1` [Example 205, (1r,4r)-4-[(3aR,9bR)-7-[(2,5-dichlorophenyl)methoxy] -9b-(4-fluorobenzenesulfonyl)-1H,2H,3H,3aH,4H,5H,9bH-benzo[e]indole-3-carbonyl]cyclohexane-1-carboxylic acid] here?
A: 0.0095 µM

Q: With `CN1CCC(C(=O)N2CC[C@@]3(S(=O)(=O)c4ccc(F)cc4)c4ccc(OCc5ccc(F)cc5Cl)cc4CC[C@@H]23)CC1` [Example 206, 4-[(3aR,9bR)-7-[(2-chloro-4-fluorophenyl)methoxy]-9b-(4-fluorobenzenesulfonyl)-1H,2H,3H,3aH,4H,5H,9bH-benzo[e]indole-3-carbonyl]-1-methylpiperidine] as the compound, how does the EC50 read?
A: 0.216 µM

Q: For `CC(=O)N1CCC(C(=O)N2CC[C@@]3(S(=O)(=O)c4ccc(F)cc4)c4ccc(OCc5ccc(F)cc5Cl)cc4CC[C@@H]23)CC1` [Example 207, 1-{4-[(3aR,9bR)-7-[(2-chloro-4-fluorophenyl)methoxy]-9b-(4-fluorobenzenesulfonyl)-1H,2H,3H,3aH,4H,5H,9bH-benzo[e]indole-3-carbonyl]piperidin-1-yl}ethan-1-one], which EC50 is on record?
A: 0.028 µM

Q: `CS(=O)(=O)CC(=O)N1CC[C@@]2(S(=O)(=O)c3ccc(F)cc3)c3ccc(OCc4cc(Cl)ccc4Cl)cc3CC[C@@H]12` [Example 208, 1-[(3 aR,9bR)-7-[(2,5-dichlorophenyl)methoxy] -9b-(4-fluorobenzenesulfonyl)-1H,2H,3H,3aH,4H,5H,9bH-benzo[e]indol-3-yl]-2-methanesulfonylethan-1-one] was tested. Which EC50 did it give?
A: 0.162 µM
